Laboratory results reported in patent publication US8163737B2 (Vertex Pharmaceuticals Incorporated, priority 2006, dated 2012).

Key:
[1] = biological target: T1, CGRP receptor (SK-N-MC membrane) (Homo sapiens, UniProt O60894+Q16602); test: I125-CGRP binding displacement assay on purified SK-N-MC membrane
T1 construct: Purified SK-N-MC membrane was purchased from Perkin Elmer; purchased Perkin Elmer; host or cells: SK-N-MC membrane
In short: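 Displacement of I125-CGRP binding was measured by filtration and scintillation counting after 2 h room-temperature incubation with compound and SK-N-MC membranes (buffer pH 7.4, MgCl2, BSA, Tween). Percent displacement calculated against total binding and 1 uM cold CGRP nonspecific controls, then curve-fitted.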

endogenous CGRP receptor = endogenous CGRP receptor (Homo sapiens, UniProt O60894+Q16602); test: CGRP functional antagonism using SK-N-MC-BLA (4C10), β-lactamase transcriptional reporter assay; assay type: cell-based; settings: SK-N-MC (4C10) cells, inhibition of β-lactamase expression in the presence of 200 pM CGRP
endogenous CGRP receptor, sequence (Q16602 23-461): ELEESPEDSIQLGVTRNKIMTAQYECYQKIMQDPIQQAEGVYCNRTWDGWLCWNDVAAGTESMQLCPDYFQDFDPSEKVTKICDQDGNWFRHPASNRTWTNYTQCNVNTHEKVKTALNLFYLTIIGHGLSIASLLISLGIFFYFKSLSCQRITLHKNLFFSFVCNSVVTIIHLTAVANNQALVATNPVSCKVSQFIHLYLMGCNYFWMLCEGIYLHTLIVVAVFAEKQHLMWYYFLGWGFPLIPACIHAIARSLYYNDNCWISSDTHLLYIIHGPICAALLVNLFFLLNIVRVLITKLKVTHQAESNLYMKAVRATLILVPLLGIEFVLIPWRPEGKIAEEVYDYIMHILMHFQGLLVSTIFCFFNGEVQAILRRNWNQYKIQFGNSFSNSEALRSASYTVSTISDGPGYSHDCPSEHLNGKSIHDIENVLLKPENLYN
endogenous CGRP receptor, sequence (O60894 27-148): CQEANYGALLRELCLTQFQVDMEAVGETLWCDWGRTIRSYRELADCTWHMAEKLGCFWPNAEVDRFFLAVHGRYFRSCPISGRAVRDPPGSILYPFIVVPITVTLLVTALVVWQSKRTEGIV

T1 sequence (Q16602 23-461): as the sequence (Q16602 23-461) above
T1 sequence (O60894 27-148): as the sequence (O60894 27-148) above

SMILES | Ki [1] | IC50 (endogenous CGRP receptor)
CN(C)[C@@H]1CCN(c2ccccc2C2SC(CC(=O)N3CCC(N4CCc5ccccc5NC4=O)CC3)C(=O)N2CCC(C)(C)C)C1 (some centres unmarked) [Compound 405] | < 1000 nM | 1000 to 5000 nM
CN(C)[C@H]1CCN(c2ccccc2C2SC(CC(=O)N3CCC(N4CCc5ccccc5NC4=O)CC3)C(=O)N2CCC(C)(C)C)C1 (some centres unmarked) [Compound 407] | < 1000 nM | < 1000 nM
CN(c1ccccc1C1SC(CC(=O)N2CCC(N3CCc4ccccc4NC3=O)CC2)C(=O)N1CCC(C)(C)C)[C@H]1CCN(Cc2ccccc2)C1 (some centres unmarked) [Compound 409] | < 1000 nM | > 5000 nM
CC(C)(C)CCN1C(=O)C(CC(=O)N2CCC(N3CCc4ccccc4NC3=O)CC2)SC1c1ccccc1C1=CCNCC1 (centres unmarked) [Compound 414] | > 5000 nM | 1000 to 5000 nM
CC(C)(C)CCN1C(=O)C(CC(=O)N2CCC(n3c(=O)[nH]c4ncccc43)CC2)SC1c1ccccc1N1CCC(O)CC1 (centres unmarked) [Compound 415] | < 1000 nM | 1000 to 5000 nM
CC(C)N1CCN(c2c(F)cccc2[C@@H]2S[C@@](C)(CC(=O)N3CCC(N4CCc5ccccc5NC4=O)CC3)C(=O)N2CCC(C)(C)C)CC1 [Compound 431] | < 1000 nM | < 1000 nM
CC(C)N1CCN(c2c(F)cccc2[C@H]2S[C@@](C)(CC(=O)N3CCC(N4CCc5ccccc5NC4=O)CC3)C(=O)N2CCC(C)(C)C)CC1 [Compound 432] | < 1000 nM | < 1000 nM
CC(C)N1CCN(c2cccc(Cl)c2[C@H]2S[C@H](CC(=O)N3CCC(N4CCc5ccccc5NC4=O)CC3)C(=O)N2CCC(C)(C)C)CC1 [Compound 434] | < 1000 nM | < 1000 nM
CC(C)(C)CCN1C(=O)[C@H](CC(=O)N2CCC(n3c(=O)[nH]c4ncccc43)CC2)S[C@H]1c1cccc(F)c1N1CCN(C(C)(C)C)CC1 [Compound 436] | < 1000 nM | < 1000 nM
CC(C)(C)CCN1C(=O)[C@H](CC(=O)N2CCC(n3c(=O)[nH]c4ncccc43)CC2)SC1c1cccc(F)c1N1CCN(C(C)(C)C)CC1 (some centres unmarked) [Compound 437] | < 1000 nM | < 1000 nM
CC(C)N1CCN(c2c(F)cccc2[C@H]2S[C@@](C)(CC(=O)N3CCC(n4c(=O)[nH]c5ncccc54)CC3)C(=O)N2CCC(C)(C)C)CC1 [Compound 446] | < 1000 nM | < 1000 nM
CC(C)(C)CCN1C(=O)[C@H](CC(=O)N2CCC(N3CC(=O)NC3=O)CC2)S[C@H]1c1cccc(F)c1N1CCN(C(C)(C)C)CC1 [Compound 447] | < 1000 nM | < 1000 nM
CN(C)C1CCN(c2c(F)cccc2[C@@H]2S[C@@H](CC(=O)N3CCC(n4c(=O)[nH]c5ncccc54)CC3)C(=O)N2CCC(C)(C)C)C1 (some centres unmarked) [Compound 456] | < 1000 nM | 1000 to 5000 nM
CC(C)(C)CCN1C(=O)[C@H](CC(=O)N2CCC(O)(c3ccc(Br)cc3)CC2)SC1c1cccc(F)c1N1CCN(C(C)(C)C)CC1 (some centres unmarked) [Compound 457] | < 1000 nM | < 1000 nM
CNC1CCN(c2c(F)cccc2[C@H]2S[C@@H](CC(=O)N3CCC(n4c(=O)[nH]c5ncccc54)CC3)C(=O)N2CCC(C)(C)C)C1 (some centres unmarked) [Compound 458] | < 1000 nM | < 1000 nM
CNC1CCN(c2c(F)cccc2[C@@H]2S[C@@H](CC(=O)N3CCC(n4c(=O)[nH]c5ncccc54)CC3)C(=O)N2CCC(C)(C)C)C1 (some centres unmarked) [Compound 459] | < 1000 nM | < 1000 nM
COc1ccc(C(=O)C2CCN(C(=O)C[C@@H]3SC(c4cccc(F)c4N4CCN(C(C)(C)C)CC4)N(CCC(C)(C)C)C3=O)CC2)cc1 (some centres unmarked) [Compound 461] | < 1000 nM | < 1000 nM

SMILES | Ki [1] | IC50 (endogenous CGRP receptor)
CC(C)(C)CCN1C(=O)[C@H](CC(=O)N2CCC(n3c(=O)[nH]c4ncccc43)CC2)S[C@H]1c1cccc(F)c1N1CCC(O)C1 (some centres unmarked) [Compound 462] | < 1000 nM | < 1000 nM
CC(C)(C)CCN1C(=O)[C@H](CC(=O)N2CCC(N3CCc4ccccc4NC3=O)CC2)SC1c1cccc(F)c1N1CCC(O)C1 (some centres unmarked) [Compound 463] | < 1000 nM | 1000 to 5000 nM
CC(C)(C)CCN1C(=O)[C@H](CC(=O)N2CCC(N3Cc4ccccc4NC3=O)CC2)S[C@H]1c1cccc(F)c1N1CCC(O)C1 (some centres unmarked) [Compound 469] | < 1000 nM | < 1000 nM
CC(C)(C)CCN1C(=O)[C@H](CC(=O)N2CCC(n3c(=O)[nH]c4ncccc43)CC2)S[C@H]1c1cccc(F)c1N1CCC(N)C1 (some centres unmarked) [Compound 470] | < 1000 nM | < 1000 nM
CC(C)(C)CCN1C(=O)[C@H](CC(=O)N2CCC(N3CCc4ccccc4NC3=O)CC2)SC1c1cccc(F)c1N1CCC(N)C1 (some centres unmarked) [Compound 471] | < 1000 nM | < 1000 nM
C[C@@H]1CN(c2c(F)cccc2[C@H]2S[C@@H](CC(=O)N3CCC(N4CCc5ccccc5NC4=O)CC3)C(=O)N2CCC(C)(C)C)C[C@H](C)N1 [Compound 474] | < 1000 nM | 1000 to 5000 nM
CN1CCN(c2ccccc2C2SC(CC(=O)N3CC(N4Cc5ccccc5NC4=O)C3)C(=O)N2CCC(C)(C)C)CC1 (centres unmarked) [Compound 477] | < 1000 nM | > 5000 nM
CC(C)(C)CCN1C(=O)[C@H](CC(=O)N2CCC(N3CCc4ccccc4NC3=O)CC2)SC1c1cc(F)cc(F)c1N1CCN(C(C)(C)C)CC1 (stereo partly drawn) [Compound 478, (5S)-2-(2-(4-tert-Butylpiperazin-1-yl)-3,5-difluorophenyl)-3-(3,3-dimethylbutyl)-5-(2-oxo-2-(4-(2-oxo-4,5-dihydro-1H-benzo[d][1,3]diazepin-3(2H)-yl)piperidin-1-yl)ethyl)thiazolidin-4-one] | < 1000 nM | < 1000 nM
CC(C)(C)CCN1C(=O)[C@H](CC(=O)N2CCC(n3c(=O)[nH]c4ncccc43)CC2)SC1c1cccc(F)c1N1CCC(F)C1 (some centres unmarked) [Compound 480] | < 1000 nM | 1000 to 5000 nM
CC(C)(C)CCN1C(=O)[C@H](CC(=O)N2CCC(N3CCc4ccccc4NC3=O)CC2)SC1c1cccc(F)c1N1CCC(F)C1 (some centres unmarked) [Compound 481] | < 1000 nM | 1000 to 5000 nM
CC(C)(C)CCN1C(=O)[C@H](CC(=O)N2CCC(n3c(=O)[nH]c4ncccc43)CC2)SC1c1cccc(F)c1N1CCC(F)(F)C1 (some centres unmarked) [Compound 482] | < 1000 nM | 1000 to 5000 nM
CC(C)(C)CCN1C(=O)[C@H](CC(=O)N2CCC(N3CCc4ccccc4NC3=O)CC2)SC1c1cccc(F)c1N1CCC(F)(F)C1 (some centres unmarked) [Compound 483] | < 1000 nM | > 5000 nM
CC(C)(C)CCN1C(=O)[C@H](CC(=O)N2CCC(n3c(=O)[nH]c4ncccc43)CC2)SC1c1cccc(F)c1N1CCC(O)C1 (some centres unmarked) [Compound 484] | < 1000 nM | < 1000 nM
CC(C)(C)CCN1C(=O)[C@H](CC(=O)N2CCC(N3CCc4ccccc4NC3=O)CC2)SC1c1cccc(F)c1N1CC[C@H](O)C1 (some centres unmarked) [Compound 485] | < 1000 nM | 1000 to 5000 nM
CC(C)(C)CCN1C(=O)[C@H](CC(=O)N2CCC(N3CCc4ccccc4NC3=O)CC2)SC1c1cccc(F)c1N1CC[C@H](O)C1 (some centres unmarked) [Compound 486] | < 1000 nM | < 1000 nM
CC(C)(C)CCN1C(=O)[C@H](CC(=O)N2CCC(N3CCc4ccccc4NC3=O)CC2)SC1c1cccc(F)c1N1CC[C@@H](O)C1 (some centres unmarked) [Compound 487] | < 1000 nM | < 1000 nM
CC(C)(C)N1CCN(c2c(F)cccc2[C@@H]2S[C@@H](CC(=O)N3CCC(N4CCc5ccccc5NC4=O)CC3)C(=O)N2CC2CC2)CC1 [Compound 488] | < 1000 nM | < 1000 nM
